Reference: ChEMBL document CHEMBL1201862, “PubChem BioAssay data set” (2004)
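Interpolation was linear, between the two tested concentrations surrounding the appropriate level; five concentrations were tested over 48 hours in 96-well plates. Abbreviation: GI50, concentration required for 50% inhibition of growth.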 Activity calls are given as the source filed them. Rule as the data show it: active = GI50 up to about 1.1 µM and inactive = higher. Residues, ends and D or L forms follow the SMILES beside them. *: point of attachment. Boc = CC(C)(C)OC(=O)*; Bz = O=C(c1ccccc1)*

What was measured:
Test in all cases: NCI tumour cell line growth inhibition, 48 h
[1] = system: SNB-19
[2] = system: SF-268
[3] = system: NCI-H460
[4] = system: MOLT-4
[5] = system: MDA-MB-435
[6] = system: LOX IMVI
[7] = system: OVCAR-3
[8] = system: RXF 393
[9] = system: CCRF-CEM
[10] = system: SNB-75
[11] = system: HCT-15
[12] = system: HCT-116
[13] = system: SK-MEL-2
[14] = system: M14
[15] = system: NCI-H23
[16] = system: SF-295
[17] = system: SR
[18] = system: MDA-N
[19] = system: Malme-3M

| SMILES | GI50 [1] | GI50 [2] | GI50 [3] | GI50 [4] | GI50 [5] | GI50 [6] | GI50 [7] | GI50 [8] | GI50 [9] | GI50 [10] | GI50 [11] [µM] | GI50 [12] | GI50 [13] | GI50 [14] | GI50 [15] | GI50 [16] | GI50 [17] | GI50 [18] | GI50 [19] |
| --- | --- | --- | --- | --- | --- | --- | --- | --- | --- | --- | --- | --- | --- | --- | --- | --- | --- | --- | --- |
| COc1cccc(/C=C2/Sc3scc(-c4ccccc4)[n+]3C2=O)c1O | 21.3 µM (inactive) | 41.2 µM (inactive) | 17.3 µM (inactive) | 16.1 µM (inactive) | 8.65 µM (inactive) | 16.2 µM (inactive) | 26.6 µM (inactive) | 14.4 µM (inactive) | 4.9 µM (inactive) | 28.6 µM (inactive) | 13.6 | 14.9 µM (inactive) | 23.3 µM (inactive) | 26 µM (inactive) | 17.3 µM (inactive) | 37.3 µM (inactive) |  |  |  |
| CC(C)(C)c1cc(CC2C(=O)c3ccccc3C2=O)cc(C(C)(C)C)c1O | 2.94 µM (inactive) | 3.44 µM (inactive) | 4.48 µM (inactive) | 2.5 µM (inactive) | 3.78 µM (inactive) | 3.81 µM (inactive) | 2.89 µM (inactive) |  | 4.04 µM (inactive) |  | 2.9 | 2.24 µM (inactive) | 3.2 µM (inactive) | 2.69 µM (inactive) | 4.22 µM (inactive) | 3.24 µM (inactive) | 2.88 µM (inactive) | 7.5 µM (inactive) |  |
| Cc1nc(-c2cc3c(ccc4ccccc43)oc2=O)cc2c1c(=O)oc1ccc3ccccc3c12 | > 100 µM (inactive) | > 100 µM (inactive) | > 100 µM (inactive) | > 100 µM (inactive) | > 100 µM (inactive) | > 100 µM (inactive) | > 100 µM (inactive) | > 100 µM (inactive) | > 100 µM (inactive) |  | > 100 | > 100 µM (inactive) | > 100 µM (inactive) | > 100 µM (inactive) | > 100 µM (inactive) | > 100 µM (inactive) | > 100 µM (inactive) |  | > 100 µM (inactive) |
| Cc1n[nH]c(=O)n1/N=C/c1cccc(Cl)c1 | > 100 µM (inactive) | 63.7 µM (inactive) | > 100 µM (inactive) | 49.3 µM (inactive) | 94.4 µM (inactive) |  | > 100 µM (inactive) | 20.2 µM (inactive) | > 100 µM (inactive) | 61.5 µM (inactive) | > 100 | > 100 µM (inactive) | > 100 µM (inactive) | > 100 µM (inactive) | > 100 µM (inactive) | > 100 µM (inactive) |  | > 100 µM (inactive) | > 100 µM (inactive) |
| Cc1c2c(OCC(O)CN3CCN(c4ccccc4)CC3)nn(C)c(=O)c2c(C)n1-c1ccccc1 (configuration not stated) | 34.3 µM (inactive) | 26.2 µM (inactive) | 25 µM (inactive) | 30.4 µM (inactive) | 29.4 µM (inactive) |  | 20.5 µM (inactive) | 26.9 µM (inactive) | 31.2 µM (inactive) | 19.8 µM (inactive) | 20.3 | 17.5 µM (inactive) | 17.9 µM (inactive) | 16.3 µM (inactive) | 20.5 µM (inactive) | 21.5 µM (inactive) |  | 19.1 µM (inactive) | 21.8 µM (inactive) |
| O=C(/C=N/c1ccccc1[S-])c1ccco1.O=C(/C=N/c1ccccc1[S-])c1ccco1.[Zn+2] | 5.78 µM (inactive) | 17.9 µM (inactive) | 3.87 µM (inactive) | 5.2 µM (inactive) |  | 7.46 µM (inactive) | 15.2 µM (inactive) |  | 2.95 µM (inactive) | 8.28 µM (inactive) | 8.59 | 4.06 µM (inactive) | 15.8 µM (inactive) | 6.53 µM (inactive) | 5.41 µM (inactive) | 3.78 µM (inactive) | 6.58 µM (inactive) |  | 10 µM (inactive) |
| COc1cc([C@@H]2OC[C@@H]3C(c4cc(OC)c5c(c4)OCO5)OC[C@@H]32)cc(OC)c1OC (some centres not stated) | > 100 µM (inactive) | > 100 µM (inactive) | > 100 µM (inactive) | 51.3 µM (inactive) | > 100 µM (inactive) | > 100 µM (inactive) | > 100 µM (inactive) |  | 52.4 µM (inactive) | > 100 µM (inactive) | 43.3 | > 100 µM (inactive) | > 100 µM (inactive) | > 100 µM (inactive) | > 100 µM (inactive) | > 100 µM (inactive) | 89.1 µM (inactive) |  |  |
| CC(NC(=O)C(Cc1ccc(OC(=O)c2ccccc2)cc1)NC(=O)OC(C)(C)C)C(=O)NC(Cc1ccccc1)C(=O)NCC(N)=O (configuration not stated) (Boc-Y(Bz)AFG-NH2; configuration not given here) | 18.6 µM (inactive) | 19.6 µM (inactive) | 18.3 µM (inactive) | 29.3 µM (inactive) | 21.7 µM (inactive) | 22 µM (inactive) |  | 20.9 µM (inactive) | 77.8 µM (inactive) | 22.8 µM (inactive) | 53 | 27.5 µM (inactive) | 17.9 µM (inactive) | 17.9 µM (inactive) | 23.2 µM (inactive) | 18.7 µM (inactive) |  | 25.8 µM (inactive) | 20.8 µM (inactive) |
